# Publication PMC8284440, “Toward New Transmission-Blocking Combination Therapies: Pharmacokinetics of 10-Amino-Artemisinins and 11-Aza-Artemisinin and Comparison with Dihydroartemisinin and Artemether” (Antimicrobial Agents and Chemotherapy, 2021)
# Like-named read-outs stand apart in the source and are kept apart here.
# Legend:
# P. falciparum TM91-C235 = test system: P. falciparum TM91-C235; parameters: method as in ref 5 (supplement; main text 63); conditions: CQ and mefloquine resistant; ref 5 (supplement; main text 63); read-out: Antimalarial activities IC50 TM91-C235; cited from earlier work
# P. falciparum TM-C2B = test system: P. falciparum TM-C2B; parameters: method as in ref 5 (supplement; main text 63); conditions: atovaquone and CQ resistant; ref 5 (supplement; main text 63); read-out: Antimalarial activities IC50 TM-C2B; cited from earlier work
# P. falciparum TM93-C1088 = test system: P. falciparum TM93-C1088; parameters: method as in ref 5 (supplement; main text 63); conditions: atovaquone and CQ resistant; ref 5 (supplement; main text 63); read-out: Antimalarial activities IC50 TM93-C1088; cited from earlier work
# P. falciparum 7G8 = test system: P. falciparum 7G8; parameters: method as in ref 5 (supplement; main text 63); conditions: CQ resistant; ref 5 (supplement; main text 63); read-out: Antimalarial activities IC50 7G8; cited from earlier work
# [1] = test system: Chinese hamster ovary (CHO) cells; conditions: cited from earlier work
# [2] = Preliminary PK assessment in the murine model (toxicity); type: in vivo
# Source text: Overall, artemiside, artemisone, and the arylurea are the frontrunners in terms of global efficacies and relatively low toxicities in vitro. However, expression of therapeutic efficacy depends not only on biological activity but also on pharmacokinetic (PK) properties. This becomes important for the envisaged drug combinations ([67]). We report here on the in vitro absorption, distribution, metabolism, and excretion (ADME) properties and PK measurement in a murine model of the compounds of Fig. 2. […] The data are directly compared to those of DHA and artemether. An evaluation of the compounds to be taken forward is then presented.
# [3] = test system: late stage (>90% stage IV and V) P. falciparum NF54 gametocytes; conditions: cited from earlier work
# P. falciparum NF54 [4] = test system: P. falciparum NF54; parameters: method as in ref 1 and 2 (supplement; main text 47, 48); conditions: Table S1, ± SEM; ref 1 and 2 (supplement; main text 47, 48); cited from earlier work
# P. falciparum W2 [5] = test system: P. falciparum W2; parameters: method as in ref 1 and 2 (supplement; main text 47, 48); conditions: Table S1, ± SEM; ref 1 and 2 (supplement; main text 47, 48); cited from earlier work
# P. falciparum K1 [6] = test system: P. falciparum K1; parameters: method as in ref 1 and 2 (supplement; main text 47, 48); conditions: Table S1, ± SEM; ref 1 and 2 (supplement; main text 47, 48); cited from earlier work
# [7] = test system: early stage (>90% stage I-III) P. falciparum NF54 gametocytes; conditions: cited from earlier work
# [8] = test system: liver stage P. berghei ANKA GFP-Luc-SMcon sporozoites; parameters: method as in ref 2 (supplement; main text 48); conditions: ref 2 (supplement; main text 48), cited from earlier work; for IC50: 48 h, ± SD
# HepG2 = conditions: cited from earlier work
# P. falciparum D6 = test system: P. falciparum D6; parameters: method as in ref 5 (supplement; main text 63); conditions: CQ sensitive; ref 5 (supplement; main text 63); read-out: Antimalarial activities IC50 D6; cited from earlier work
# P. falciparum W2 [9] = test system: P. falciparum W2; parameters: method as in ref 5 (supplement; main text 63); conditions: CQ resistant; ref 5 (supplement; main text 63); read-out: Antimalarial activities IC50 W2; cited from earlier work
# [10] = parameters: method as in PMID 25759576; conditions: p.o., mouse; cited from earlier work
# [11] = parameters: method as in PMID 25759576; conditions: i.v., mouse; cited from earlier work
# murine cerebral malaria = test system: murine cerebral malaria; parameters: method as in PMID 20691118; conditions: prescribed low dose levels; cited from earlier work
# P. falciparum W2 [12] = test system: P. falciparum W2; parameters: method as in ref 4 (supplement; main text 62); conditions: Table S2, ± SEM; ref 4 (supplement; main text 62); read-out: Antimalarial activities IC50 W2; cited from earlier work
# P. falciparum K1 [13] = test system: P. falciparum K1; parameters: method as in ref 4 (supplement; main text 62); conditions: Table S2, ± SEM; ref 4 (supplement; main text 62); read-out: Antimalarial activities IC50 K1; cited from earlier work
# P. falciparum NF54 [14] = test system: P. falciparum NF54; parameters: method as in ref 4 (supplement; main text 62); conditions: Table S2, ± SEM; ref 4 (supplement; main text 62); read-out: Antimalarial activities IC50 NF54; cited from earlier work
# [15] = Table S3, ± SEM, ref 1 and 2 (supplement; main text 47, 48), read-out: Late Stage (LG, Luc 72 h) IC50
# [16] = Table S3, ± SEM, ref 1 and 2 (supplement; main text 47, 48), read-out: Early Stage (EG, Luc 48 h) IC50
compound,measurement,setting,value
"OC(c1cc(C(F)(F)F)nc2c(C(F)(F)F)cccc12)C1CCCCN1 (stereo not drawn) [Mefloquine MFQ, Mefloquine]",IC50,P. falciparum TM91-C235,0.107 ± 0.041 µM
same,IC50,P. falciparum TM-C2B,0.13 ± 0.051 µM
same,IC50,P. falciparum TM93-C1088,0.016 ± 0.005 µM
same,IC50,P. falciparum 7G8,0.0054 ± 0.0017 µM
C[C@H]1[C@H](Nc2ccc(F)cc2)O[C@@H]2O[C@@]3(C)CC[C@H]4[C@H](C)CC[C@@H]1[C@@]24OO3 [Arylamine 8],EC50,"[1]; read-out: Cytotoxicity EC50 CHO, MTT, ±SD, ref 1 and 2 (supplement; main text 47, 48)",2.9 ± 1.4 µM
same,Toxicity in preliminary PK assessment,[2],untoward toxicity
same,IC50,[3]; [15],0.0164 ± 0.00638 µM
same,IC50,P. falciparum NF54 [4],0.0013 ± 0.0006 µM
same,IC50,P. falciparum W2 [5],0.003 ± 0.001 µM
same,IC50,P. falciparum K1 [6],0.00064 ± 0.0001 µM
same,IC50,[7]; [16],0.0382 ± 0.009 µM
"CN(C)c1ccc2nc3ccc(=[N+](C)C)cc-3sc2c1 [Methylene Blue, reference compound]",EC50,[1],52.6 ± 4.5 µM
same,IC50,[3]; [15],0.143 µM
same,IC50,P. falciparum NF54 [4],0.005 ± 0.0008 µM
same,IC50,P. falciparum W2 [5],0.00513 ± 0.00031 µM
same,IC50,P. falciparum K1 [6],0.00645 ± 0.0003 µM
same,IC50,[7]; [16],0.095 µM
O=C1C(O)=C([C@H]2CC[C@H](c3ccc(Cl)cc3)CC2)C(=O)c2ccccc21 [Atovaquone],IC50,[8],0.00252 ± 0.000997 µM
same,Maximum inhibition %,[8]; at 0.5 µM,94.85±2.76%
same,IC50,P. falciparum TM91-C235,0.0022 ± 0.0007 µM
same,IC50,P. falciparum TM-C2B,31.9 µM
same,IC50,P. falciparum TM93-C1088,18.8 µM
same,EC50,HepG2,> 0.25 µM
same,IC50,P. falciparum 7G8,0.0031 ± 0.0009 µM
CCN(CC)CCCC(C)Nc1ccnc2cc(Cl)ccc12 (stereo not drawn) [Chloroquine],IC50,P. falciparum TM91-C235,0.07 ± 0.012 µM
same,IC50,P. falciparum D6,0.016 ± 0.002 µM
same,IC50,P. falciparum TM-C2B,0.095 ± 0.023 µM
same,IC50,P. falciparum TM93-C1088,0.36 ± 0.038 µM
same,IC50,P. falciparum 7G8,0.084 ± 0.018 µM
same,IC50,P. falciparum NF54 [4],0.01 ± 0.003 µM
same,IC50,P. falciparum W2 [9],0.195 ± 0.07 µM
same,IC50,P. falciparum K1 [6],0.154 ± 0.014 µM
COc1cc(C)c2c(Oc3cccc(C(F)(F)F)c3)c(OC)cc(NC(C)CCCN)c2n1 (stereo not drawn) [Tafenoquine],AUC,[10],"11,368 ± 1,232 min/μmol/liter"
same,Cmax,[10],3.06 ± 0.37 µM
same,F,[10],55 ± 2%
same,Tmax,[10],9.0 ± 1.0 h
same,AUC,[11],"2,363 ± 146 min/μmol/liter"
same,CLint,[11],1.84 mL/min/kg
same,V,[11],2.34 ± 0.0 L/kg
same,t1/2,[11],43.7 ± 1.5 h
COc1ccc(C[C@H](N)C(=O)N[C@H]2[C@@H](O)[C@H](n3cnc4c(N(C)C)ncnc43)O[C@@H]2CO)cc1 [Puromycin],IC50,[8],0.0227 ± 0.00453 µM
same,Maximum inhibition %,[8]; at 5 µM,110±4.24%
same,EC50,HepG2,0.117 µM
"C[C@H]1[C@H](OC(=O)CCC(=O)O)O[C@@H]2O[C@@]3(C)CC[C@H]4[C@H](C)CC[C@@H]1[C@@]24OO3 [Artesunate 4, artesunate]",Cure of murine cerebral malaria,murine cerebral malaria,no cure
same,IC50,P. falciparum TM91-C235,0.0029 ± 0.0014 µM
same,IC50,P. falciparum TM-C2B,0.0025 ± 0.0005 µM
same,IC50,P. falciparum TM93-C1088,0.0014 ± 0.0001 µM
same,IC50,P. falciparum W2 [12],0.0024 ± 0.0002 µM
same,IC50,"[3]; Table S4, n = 1, ref 4 (supplement; main text 62), read-out: Late stage IC50 (Luciferase 72 h)",0.171 µM
same,IC50,P. falciparum 7G8,0.0015 ± 0.0002 µM
same,IC50,P. falciparum K1 [13],0.00326 ± 0.0002 µM
same,IC50,P. falciparum W2 [9],0.003 ± 0.0016 µM
same,IC50,P. falciparum NF54 [14],0.003 ± 0.00029 µM
same,IC50,"[7]; Table S4, ± SEM, n = 3, ref 4 (supplement; main text 62), read-out: Early stage IC50 (Luciferase 48 h)",0.0628 ± 0.00314 µM
